Molecular target: Delta-type opioid receptor (Homo sapiens) (UniProt P41143)
Experiment: Compound was tested for delta-opioid receptor agonistic activity;A - found to be highly selective
Format: functional
Conditions: filed as agonist

Chain of Delta-type opioid receptor (Homo sapiens) (P41143 whole entry): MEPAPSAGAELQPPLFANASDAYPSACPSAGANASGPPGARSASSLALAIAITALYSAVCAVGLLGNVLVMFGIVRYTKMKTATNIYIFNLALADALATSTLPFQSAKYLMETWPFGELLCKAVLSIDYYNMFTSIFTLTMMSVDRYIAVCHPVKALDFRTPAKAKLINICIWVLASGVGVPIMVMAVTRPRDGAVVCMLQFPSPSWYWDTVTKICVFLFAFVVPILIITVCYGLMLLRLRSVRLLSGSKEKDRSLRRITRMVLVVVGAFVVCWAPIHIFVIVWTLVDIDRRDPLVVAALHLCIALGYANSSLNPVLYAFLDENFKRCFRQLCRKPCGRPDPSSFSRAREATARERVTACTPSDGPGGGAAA

For `C=CCN1C[C@H](C)N([C@H](c2ccc(C(=O)N(CC)CC)cc2)c2cccc(O)c2)C[C@H]1C`, the Activity was “Agonist”.

From ChEMBL document CHEMBL1128168, “An efficient synthesis of the benzhydrylpiperazine delta opioid agonist (+)-BW373U86” (Bioorg Med Chem Lett, 1995)
